# Assay results published in patent US20220251116A1, “ALKYLBORONIC ACIDS AS ARGINASE INHIBITORS” (Guangdong Newopp Biopharmaceuticals Co., Ltd., priority 2019, published 2022).
# pIC50: −log10 of the molar value. Counter-ions that a name gives are not always drawn.
# Molecular target: T1, recombinant human arginase 1 (Homo sapiens, UniProt P05089)
# T1 sequence (P05089 1-322): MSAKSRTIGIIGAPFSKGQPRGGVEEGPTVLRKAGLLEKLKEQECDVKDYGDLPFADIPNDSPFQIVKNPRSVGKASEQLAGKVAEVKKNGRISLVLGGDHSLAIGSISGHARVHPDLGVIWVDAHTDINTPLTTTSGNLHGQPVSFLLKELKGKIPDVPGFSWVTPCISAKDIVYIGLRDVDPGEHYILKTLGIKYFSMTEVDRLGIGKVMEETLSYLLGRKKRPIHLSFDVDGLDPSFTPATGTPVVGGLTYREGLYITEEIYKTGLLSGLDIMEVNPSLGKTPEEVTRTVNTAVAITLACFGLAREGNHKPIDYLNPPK
# Test: Arginase inhibitory activity test, enzymatic assay based on urea measurement (Arg 1);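 further: enzyme incubated with L-arginine substrate and compound at 37 °C for 120 min, urea product detected colorimetrically by absorbance at 450 nm, background from wells lacking enzyme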
# Protocol: An enzymatic assay with recombinant human arginases 1 or 2 was used to measure inhibitory activity of the compounds. The assay is based on urea measurement, which is a product of L-arginine enzymatic degradation.
# Briefly, arginase and the substrate solution containing L-arginine were incubated in the absence or presence of varying concentrations of compounds at 37° C. for 120 min. For the background correction, only the substrate solution was added without arginase. The urea detection reagent from QuantiChrome™ Urea assay kit (BioAssay Systems, CA) was added to develop the color product. After 60 min at room temperature, the absorbance was measured at 450 nm with CLARIOstar (BMG LABTECH). Urea was used as the standard.
row,SMILES,pIC50
1,"CN(C)CCN(C)S(=O)(=O)N1C[C@H](CCCB(O)O)[C@](N)(C(=O)O)C1 (racemic) [Example 45, (racemic)-trans-3-amino-4-(3-boronopropyl)-1-(N-(2-(dimethylamino)ethyl)-N-methylsulfamoyl)pyrrolidine-3-carboxylic acid, 2,2,2-trifluoroacetic acid salt (1:2)]",6.00 to 7.00
2,"CNCCNS(=O)(=O)N1C[C@H](CCCB(O)O)[C@](N)(C(=O)O)C1 (racemic) [Example 46, (racemic)-trans-3-amino-4-(3-boronopropyl)-1-(N-(2-(methylamino)ethyl)sulfamoyl)pyrrolidine-3-carboxylic acid, 2,2,2-trifluoroacetic acid salt (1:2)]",6.00 to 7.00
3,"CNCCN(C)S(=O)(=O)N1C[C@H](CCCB(O)O)[C@](N)(C(=O)O)C1 (racemic) [Example 47, (racemic)-trans-3-amino-4-(3-boronopropyl)-1-(N-methyl-N-(2-(methylamino)ethyl)sulfamoyl)pyrrolidine-3-carboxylic acid, 2,2,2-trifluoroacetic acid salt (1:2)]",> 7.00
4,"CC(C)(N)C(C)(C)NS(=O)(=O)N1C[C@H](CCCB(O)O)[C@](N)(C(=O)O)C1 (racemic) [Example 50, (racemic)-trans-3-amino-1-(N-(3-amino-2,3-dimethylbutan-2-yl)sulfamoyl)-4-(3-boronopropyl)pyrrolidine-3-carboxylic acid, 2,2,2-trifluoroacetic acid salt (1:2)]",6.00 to 7.00
5,"N=C(N)NC(=O)N1C[C@H](CCCB(O)O)[C@](N)(C(=O)O)C1 (racemic) [Example 51, (racemic)-trans-3-amino-4-(3-boronopropyl)-1-(carbamimidoylcarbamoyl)pyrrolidine-3-carboxylic acid, 2,2,2-trifluoroacetic acid salt (1:2)]",6.00 to 7.00
6,"CCN(C1CNC1)S(=O)(=O)N1C[C@H](CCCB(O)O)[C@](N)(C(=O)O)C1 (racemic) [Example 52, (racemic)-trans-3-amino-1-(N-(azetidin-3-yl)-N-ethylsulfamoyl)-4-(3-boronopropyl)pyrrolidine-3-carboxylic acid 2,2,2-trifluoroacetic acid salt (1:2)]",> 7.00
7,"NC(=O)NS(=O)(=O)N1C[C@H](CCCB(O)O)[C@](N)(C(=O)O)C1 (racemic) [Example 53, (racemic)-trans-3-amino-4-(3-boronopropyl)-1-(N-carbamoylsulfamoyl)pyrrolidine-3-carboxylic acid 2,2,2-trifluoroacetic acid salt (1:2)]",5.00 to 6.00
8,"N=C(N)NCCNS(=O)(=O)N1C[C@H](CCCB(O)O)[C@](N)(C(=O)O)C1 (racemic) [Example 54, (racemic)-trans-3-amino-4-(3-boronopropyl)-1-(N-(2-guanidinoethyl)sulfamoyl)pyrrolidine-3-carboxylic acid, 2,2,2-trifluoroacetic acid salt (1:2)]",6.00 to 7.00
9,COC(=O)[C@@H](N)CNS(=O)(=O)N1C[C@H](CCCB(O)O)[C@](N)(C(=O)O)C1 (racemic) [Example 55],> 7.00
10,N[C@@H](CNS(=O)(=O)N1C[C@H](CCCB(O)O)[C@](N)(C(=O)O)C1)C(=O)O (racemic) [Example 56],6.00 to 7.00
11,"N[C@H]1CC1NS(=O)(=O)N1C[C@H](CCCB(O)O)[C@](N)(C(=O)O)C1 (relative stereo) [Example 40, (3R,4S)-3-amino-1-(N-((cis)-2-aminocyclopropyl)sulfamoyl)-4-(3-boronopropyl)pyrrolidine-3-carboxylic acid, 2,2,2-trifluoroacetic acid salt (1:2)]",6.00 to 7.00
12,"CN(CCN)S(=O)(=O)N1C[C@H](CCCB(O)O)[C@](N)(C(=O)O)C1 [Example 27, (3R,4S)-3-amino-1-(N-(2-aminoethyl)-N-methylsulfamoyl)-4-(3-boronopropyl)pyrrolidine-3-carboxylic acid, 2,2,2-trifluoroacetic acid salt (1:2)]",> 7.00
13,"NCCNc1c(N2C[C@H](CCCB(O)O)[C@](N)(C(=O)O)C2)c(=O)c1=O [Example 28, (3R,4S)-3-amino-1-(2-((2-aminoethyl)amino)-3,4-dioxocyclobut-1-en-1-yl)-4-(3-boronopropyl)pyrrolidine-3-carboxylic acid, 2,2,2-trifluoroacetic acid salt (1:2)]",> 7.00
14,"CN(CCN)c1c(N2C[C@H](CCCB(O)O)[C@](N)(C(=O)O)C2)c(=O)c1=O [Example 29, (3R,4S)-3-amino-1-(2-((2-aminoethyl)(methyl)amino)-3,4-dioxocyclobut-1-en-1-yl)-4-(3-boronopropyl)pyrrolidine-3-carboxylic acid, 2,2,2-trifluoroacetic acid salt (1:2)]",> 7.00
15,"CC(C)N(C1CNC1)S(=O)(=O)N1C[C@H](CCCB(O)O)[C@](N)(C(=O)O)C1 [Example 57, (3R,4S)-3-amino-1-(N-(azetidin-3-yl)-N-isopropylsulfamoyl)-4-(3-boronopropyl)pyrrolidine-3-carboxylic acid, 2,2,2-trifluoroacetic acid salt (1:2)]",> 7.00
16,"CC(NS(=O)(=O)N1C[C@H](CCCB(O)O)[C@](N)(C(=O)O)C1)C1(N)CC1 (stereo partly drawn) [Example 58, (3R,4S)-3-amino-1-(N-(1-(1-aminocyclopropyl)ethyl)sulfamoyl)-4-(3-boronopropyl)pyrrolidine-3-carboxylic acid, 2,2,2-trifluoroacetic acid salt (1:2)]",6.00 to 7.00
17,"CCCN(C1CNC1)S(=O)(=O)N1C[C@H](CCCB(O)O)[C@](N)(C(=O)O)C1 [Example 59, (3R,4S)-3-amino-1-(N-(azetidin-3-yl)-N-propylsulfamoyl)-4-(3-boronopropyl)pyrrolidine-3-carboxylic acid, 2,2,2-trifluoroacetic acid salt (1:2)]",> 7.00
18,"CC(C)CN(C1CNC1)S(=O)(=O)N1C[C@H](CCCB(O)O)[C@](N)(C(=O)O)C1 [Example 60, (3R,4S)-3-amino-1-(N-(azetidin-3-yl)-N-isobutylsulfamoyl)-4-(3-boronopropyl)pyrrolidine-3-carboxylic acid, 2,2,2-trifluoroacetic acid salt (1:2)]",> 7.00
19,"CCCCN(C1CNC1)S(=O)(=O)N1C[C@H](CCCB(O)O)[C@](N)(C(=O)O)C1 [Example 61, (3R,4S)-3-amino-1-(N-(azetidin-3-yl)-N-butylsulfamoyl)-4-(3-boronopropyl)pyrrolidine-3-carboxylic acid, 2,2,2-trifluoroacetic acid salt (1:2)]",> 7.00
20,"N[C@@]1(C(=O)O)CN(S(=O)(=O)N(Cc2ccccc2)C2CNC2)C[C@@H]1CCCB(O)O [Example 62, (3R,4S)-3-amino-1-(N-(azetidin-3-yl)-N-benzylsulfamoyl)-4-(3-boronopropyl)pyrrolidine-3-carboxylic acid, 2,2,2-trifluoroacetic acid salt (1:2)]",> 7.00
21,"N[C@@]1(C(=O)O)CN(S(=O)(=O)N(CC2CC2)C2CNC2)C[C@@H]1CCCB(O)O [Example 63, (3R,4S)-3-amino-1-(N-(azetidin-3-yl)-N-(cyclopropylmethyl)sulfamoyl)-4-(3-boronopropyl)pyrrolidine-3-carboxylic acid, 2,2,2-trifluoroacetic acid salt (1:2)]",> 7.00
22,"N[C@@]1(C(=O)O)CN(S(=O)(=O)N(c2ccccc2)C2CNC2)C[C@@H]1CCCB(O)O [Example 64, (3R,4S)-3-amino-1-(N-(azetidin-3-yl)-N-phenylsulfamoyl)-4-(3-boronopropyl)pyrrolidine-3-carboxylic acid, 2,2,2-trifluoroacetic acid salt (1:2)]",> 7.00
23,"CCN(CC1(N)CC1)S(=O)(=O)N1C[C@H](CCCB(O)O)[C@](N)(C(=O)O)C1 [Example 65, (3R,4S)-3-amino-1-(N-((1-aminocyclopropyl)methyl)-N-ethylsulfamoyl)-4-(3-boronopropyl)pyrrolidine-3-carboxylic acid, 2,2,2-trifluoroacetic acid salt (1:2)]",5.00 to 6.00
24,"N[C@@]1(C(=O)O)CN(S(=O)(=O)N(CC(F)(F)F)C2CNC2)C[C@@H]1CCCB(O)O [Example 66, (3R,4S)-3-amino-1-(N-(azetidin-3-yl)-N-(2,2,2-trifluoroethyl)sulfamoyl)-4-(3-boronopropyl)pyrrolidine-3-carboxylic acid, 2,2,2-trifluoroacetic acid salt (1:2)]",> 7.00
25,"NCCN(CC1CC1)S(=O)(=O)N1C[C@H](CCCB(O)O)[C@](N)(C(=O)O)C1 [Example 67, (3R,4S)-3-amino-1-(N-(2-aminoethyl)-N-(cyclopropylmethyl)sulfamoyl)-4-(3-boronopropyl)pyrrolidine-3-carboxylic acid, 2,2,2-trifluoroacetic acid salt (1:2)]",> 7.00
26,"NC1(CN(CC2CC2)S(=O)(=O)N2C[C@H](CCCB(O)O)[C@](N)(C(=O)O)C2)CC1 [Example 68, (3R,4S)-3-amino-1-(N-((1-aminocyclopropyl)methyl)-N-(cyclopropylmethyl)sulfamoyl)-4-(3-boronopropyl)pyrrolidine-3-carboxylic acid, 2,2,2-trifluoroacetic acid salt (1:2)]",> 7.00
27,"NC1CC1N(CC1CC1)S(=O)(=O)N1C[C@H](CCCB(O)O)[C@](N)(C(=O)O)C1 (stereo partly drawn) [Example 69, (3R,4S)-3-amino-1-(trans-N-(2-aminocyclopropyl)-N-(cyclopropylmethyl)sulfamoyl)-4-(3-boronopropyl)pyrrolidine-3-carboxylic acid, 2,2,2-trifluoroacetic acid salt (1:2)]",> 7.00
28,"N[C@@]1(C(=O)O)CN(S(=O)(=O)N(CC2CC2)[C@@H]2CCNC2)C[C@@H]1CCCB(O)O [Example 70, (3R,4S)-3-amino-4-(3-boronopropyl)-1-(N-(cyclopropylmethyl)-N-((R)-pyrrolidin-3-yl)sulfamoyl)pyrrolidine-3-carboxylic acid, 2,2,2-trifluoroacetic acid salt (1:2)]",> 7.00
